Key:
[1] = test system: A549; assay: cells; settings: Homo sapiens, A549, 72 h
Description: Antiproliferative activity against human A549 cells incubated for 3 days by MTT assay

[2] = test system: K562; assay: cells; settings: Homo sapiens, K562, 72 h
Description: Antiproliferative activity against human K562 cells incubated for 3 days by MTT assay

[3] = test system: HT-29; assay: cells; settings: Homo sapiens, HT-29, 72 h
Description: Antiproliferative activity against human HT-29 cells incubated for 3 days by MTT assay

[4] = test system: EBC-1; assay: cells; settings: Homo sapiens, EBC-1, 72 h
Description: Antiproliferative activity against human EBC-1 cells incubated for 3 days by MTT assay

[5] = test system: K562; assay: Induction of cell cycle arrest in human K562 cells assessed as accumulation at G0/G1 phase at 10 uM incubated for 48 hrs by Rnase/PI staining based flow cytometry (reference value: 57.34 +/- 3.14); format: functional
[6] = target: Hepatocyte growth factor receptor (Homo sapiens) (UniProt P08581); assay: Inhibition of MET (unknown origin) at 10 uM by radiometric assay relative to control
[7] = target: Mitogen-activated protein kinase 3 (Homo sapiens) (UniProt P27361); assay: Inhibition of MAPK3 (unknown origin) at 10 uM by radiometric assay relative to control
[8] = target: Vascular endothelial growth factor receptor 2 (Homo sapiens) (UniProt P35968); assay: Inhibition of KDR (unknown origin) at 10 uM by radiometric assay relative to control
[9] = target: Mast/stem cell growth factor receptor Kit (Homo sapiens) (UniProt P10721); assay: Inhibition of KIT (unknown origin) at 10 uM by radiometric assay relative to control
[10] = test system: T1, Receptor-type tyrosine-protein kinase FLT3 (Homo sapiens), P36888 [D835Y]; assay: Inhibition of human FLT3 D835Y mutant at 10 uM by radiometric assay relative to control
T1 sequence (whole entry): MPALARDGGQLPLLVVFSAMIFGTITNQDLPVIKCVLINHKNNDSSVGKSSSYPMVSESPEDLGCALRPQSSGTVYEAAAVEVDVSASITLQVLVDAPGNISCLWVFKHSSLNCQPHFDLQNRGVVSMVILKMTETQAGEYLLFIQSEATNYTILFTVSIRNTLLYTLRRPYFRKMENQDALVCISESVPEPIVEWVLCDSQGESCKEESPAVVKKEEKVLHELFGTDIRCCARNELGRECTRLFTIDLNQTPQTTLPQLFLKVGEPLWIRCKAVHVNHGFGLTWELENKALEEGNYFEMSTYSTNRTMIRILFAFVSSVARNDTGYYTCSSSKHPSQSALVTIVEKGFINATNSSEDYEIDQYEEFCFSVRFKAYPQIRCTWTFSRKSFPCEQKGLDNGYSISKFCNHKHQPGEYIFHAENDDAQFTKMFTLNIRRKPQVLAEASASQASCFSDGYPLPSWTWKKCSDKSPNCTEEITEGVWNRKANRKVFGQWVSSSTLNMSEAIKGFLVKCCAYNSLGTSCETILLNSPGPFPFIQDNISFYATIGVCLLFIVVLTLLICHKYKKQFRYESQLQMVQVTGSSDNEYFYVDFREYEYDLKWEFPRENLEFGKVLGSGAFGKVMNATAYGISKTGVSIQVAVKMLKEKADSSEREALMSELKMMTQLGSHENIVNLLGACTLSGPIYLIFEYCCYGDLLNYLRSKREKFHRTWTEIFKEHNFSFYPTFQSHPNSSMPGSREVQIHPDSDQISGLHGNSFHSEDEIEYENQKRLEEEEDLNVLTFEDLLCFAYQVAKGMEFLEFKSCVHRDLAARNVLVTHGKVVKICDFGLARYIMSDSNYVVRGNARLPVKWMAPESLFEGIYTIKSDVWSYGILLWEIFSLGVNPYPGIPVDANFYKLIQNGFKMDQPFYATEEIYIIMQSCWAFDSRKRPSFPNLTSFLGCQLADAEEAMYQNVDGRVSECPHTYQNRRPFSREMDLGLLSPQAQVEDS

[11] = target: Platelet-derived growth factor receptor beta (Homo sapiens) (UniProt P09619); assay: Inhibition of PDGFRB (unknown origin) at 10 uM by radiometric assay relative to control
[12] = target: Platelet-derived growth factor receptor alpha (Homo sapiens) (UniProt P16234); assay: Inhibition of PDGFRA (unknown origin) at 10 uM by radiometric assay relative to control
[13] = target: Receptor-type tyrosine-protein kinase FLT3 (Homo sapiens) (UniProt P36888); assay: Inhibition of human FLT3 at 25 uM by radiometric assay relative to control
[14] = target: Macrophage-stimulating protein receptor (Homo sapiens) (UniProt Q04912); assay: Inhibition of MST1R (unknown origin) at 10 uM by radiometric assay relative to control
[15] = test system: K562; assay: Induction of cell cycle arrest in human K562 cells assessed as accumulation at sub G1 phase at 10 uM incubated for 48 hrs by Rnase/PI staining based flow cytometry (reference value: 0.92 +/- 0.12); format: functional
[16] = test system: K562; assay: Induction of cell cycle arrest in human K562 cells assessed as accumulation at G0/G1 phase at 50 uM incubated for 48 hrs by Rnase/PI staining based flow cytometry (reference value: 57.34 +/- 3.14); format: functional
[17] = test system: T1, Receptor-type tyrosine-protein kinase FLT3 (Homo sapiens), P36888 [D835Y]; assay: Inhibition of human FLT3 D835Y mutant at 25 uM by radiometric assay relative to control
[18] = test system: K562; assay: Induction of cell cycle arrest in human K562 cells assessed as accumulation at G2/M phase at 50 uM incubated for 48 hrs by Rnase/PI staining based flow cytometry (reference value: 23.78 +/- 6.09); format: functional
[19] = test system: K562; assay: Induction of cell cycle arrest in human K562 cells assessed as accumulation at G2/M phase at 10 uM incubated for 48 hrs by Rnase/PI staining based flow cytometry (reference value: 23.78 +/- 6.09); format: functional
[20] = target: Dual specificity mitogen-activated protein kinase kinase 1 (Homo sapiens) (UniProt Q02750); assay: Inhibition of MAP2K1 (unknown origin) at 10 uM by radiometric assay relative to control
[21] = target: Receptor-type tyrosine-protein kinase FLT3 (Homo sapiens) (UniProt P36888); assay: Inhibition of human FLT3 at 10 uM by radiometric assay relative to control
[22] = test system: K562; assay: Induction of cell cycle arrest in human K562 cells assessed as accumulation at sub G1 phase at 50 uM incubated for 48 hrs by Rnase/PI staining based flow cytometry (reference value: 0.92 +/- 0.12); format: functional
[23] = test system: K562; assay: Induction of cell cycle arrest in human K562 cells assessed as accumulation at S phase at 10 uM incubated for 48 hrs by Rnase/PI staining based flow cytometry (reference value: 17.95 +/- 3.42); format: functional
[24] = test system: K562; assay: Induction of cell cycle arrest in human K562 cells assessed as accumulation at S phase at 50 uM incubated for 48 hrs by Rnase/PI staining based flow cytometry (reference value: 17.95 +/- 3.42); format: functional

Sequence of Platelet-derived growth factor receptor alpha (Homo sapiens) (P16234 whole entry): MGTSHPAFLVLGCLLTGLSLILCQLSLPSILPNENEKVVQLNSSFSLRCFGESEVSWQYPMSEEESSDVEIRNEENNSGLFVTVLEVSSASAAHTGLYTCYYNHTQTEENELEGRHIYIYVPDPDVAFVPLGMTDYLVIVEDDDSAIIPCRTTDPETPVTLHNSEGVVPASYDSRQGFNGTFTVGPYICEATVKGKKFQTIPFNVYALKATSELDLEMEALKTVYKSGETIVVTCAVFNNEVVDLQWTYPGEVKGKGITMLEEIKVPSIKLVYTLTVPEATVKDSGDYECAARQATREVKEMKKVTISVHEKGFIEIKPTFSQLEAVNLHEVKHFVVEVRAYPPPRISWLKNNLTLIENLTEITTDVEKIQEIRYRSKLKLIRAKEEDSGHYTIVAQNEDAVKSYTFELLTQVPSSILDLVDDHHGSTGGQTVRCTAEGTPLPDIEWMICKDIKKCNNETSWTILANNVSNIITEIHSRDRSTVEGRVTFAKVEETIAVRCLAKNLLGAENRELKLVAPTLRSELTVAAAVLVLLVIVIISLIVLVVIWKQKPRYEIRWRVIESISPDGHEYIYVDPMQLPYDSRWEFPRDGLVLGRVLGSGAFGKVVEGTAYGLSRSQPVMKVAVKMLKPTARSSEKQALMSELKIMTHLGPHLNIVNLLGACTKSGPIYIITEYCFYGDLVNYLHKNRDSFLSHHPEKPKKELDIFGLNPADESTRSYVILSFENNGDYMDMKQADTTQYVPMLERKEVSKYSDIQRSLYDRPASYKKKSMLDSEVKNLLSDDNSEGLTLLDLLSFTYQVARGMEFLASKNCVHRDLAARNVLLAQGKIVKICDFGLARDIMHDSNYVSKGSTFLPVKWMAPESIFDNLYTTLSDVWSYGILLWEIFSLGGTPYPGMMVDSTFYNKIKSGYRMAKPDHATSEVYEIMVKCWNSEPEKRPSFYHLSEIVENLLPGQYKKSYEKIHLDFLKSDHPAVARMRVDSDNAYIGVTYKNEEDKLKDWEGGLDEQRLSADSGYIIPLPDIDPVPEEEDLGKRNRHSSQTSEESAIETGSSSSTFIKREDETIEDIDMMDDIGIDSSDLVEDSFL
Sequence of Mast/stem cell growth factor receptor Kit (Homo sapiens) (P10721 whole entry): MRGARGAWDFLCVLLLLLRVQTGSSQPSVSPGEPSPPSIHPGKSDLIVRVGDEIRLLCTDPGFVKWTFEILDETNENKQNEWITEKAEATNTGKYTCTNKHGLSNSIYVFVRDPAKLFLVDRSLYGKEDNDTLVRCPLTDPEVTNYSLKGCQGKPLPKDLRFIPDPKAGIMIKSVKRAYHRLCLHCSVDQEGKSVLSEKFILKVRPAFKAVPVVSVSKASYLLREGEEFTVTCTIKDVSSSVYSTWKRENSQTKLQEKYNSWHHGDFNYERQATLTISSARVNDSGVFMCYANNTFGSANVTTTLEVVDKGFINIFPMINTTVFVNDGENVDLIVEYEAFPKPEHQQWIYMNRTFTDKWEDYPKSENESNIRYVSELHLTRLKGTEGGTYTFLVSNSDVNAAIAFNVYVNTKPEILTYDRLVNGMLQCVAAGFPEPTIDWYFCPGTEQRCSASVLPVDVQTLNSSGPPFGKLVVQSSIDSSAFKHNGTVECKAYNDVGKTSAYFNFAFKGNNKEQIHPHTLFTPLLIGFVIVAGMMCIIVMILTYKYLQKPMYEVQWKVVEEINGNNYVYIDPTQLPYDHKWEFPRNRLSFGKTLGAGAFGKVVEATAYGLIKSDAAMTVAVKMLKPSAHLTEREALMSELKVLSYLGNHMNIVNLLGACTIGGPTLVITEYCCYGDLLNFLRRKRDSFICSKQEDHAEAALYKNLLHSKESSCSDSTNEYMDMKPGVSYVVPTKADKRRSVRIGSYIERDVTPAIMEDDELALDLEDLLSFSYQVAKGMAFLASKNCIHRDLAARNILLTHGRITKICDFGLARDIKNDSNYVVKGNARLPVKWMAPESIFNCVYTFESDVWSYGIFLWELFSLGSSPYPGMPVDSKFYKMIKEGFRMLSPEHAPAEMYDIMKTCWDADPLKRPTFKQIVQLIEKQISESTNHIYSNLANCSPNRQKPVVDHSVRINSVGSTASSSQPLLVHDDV
Sequence of Hepatocyte growth factor receptor (Homo sapiens) (P08581 whole entry): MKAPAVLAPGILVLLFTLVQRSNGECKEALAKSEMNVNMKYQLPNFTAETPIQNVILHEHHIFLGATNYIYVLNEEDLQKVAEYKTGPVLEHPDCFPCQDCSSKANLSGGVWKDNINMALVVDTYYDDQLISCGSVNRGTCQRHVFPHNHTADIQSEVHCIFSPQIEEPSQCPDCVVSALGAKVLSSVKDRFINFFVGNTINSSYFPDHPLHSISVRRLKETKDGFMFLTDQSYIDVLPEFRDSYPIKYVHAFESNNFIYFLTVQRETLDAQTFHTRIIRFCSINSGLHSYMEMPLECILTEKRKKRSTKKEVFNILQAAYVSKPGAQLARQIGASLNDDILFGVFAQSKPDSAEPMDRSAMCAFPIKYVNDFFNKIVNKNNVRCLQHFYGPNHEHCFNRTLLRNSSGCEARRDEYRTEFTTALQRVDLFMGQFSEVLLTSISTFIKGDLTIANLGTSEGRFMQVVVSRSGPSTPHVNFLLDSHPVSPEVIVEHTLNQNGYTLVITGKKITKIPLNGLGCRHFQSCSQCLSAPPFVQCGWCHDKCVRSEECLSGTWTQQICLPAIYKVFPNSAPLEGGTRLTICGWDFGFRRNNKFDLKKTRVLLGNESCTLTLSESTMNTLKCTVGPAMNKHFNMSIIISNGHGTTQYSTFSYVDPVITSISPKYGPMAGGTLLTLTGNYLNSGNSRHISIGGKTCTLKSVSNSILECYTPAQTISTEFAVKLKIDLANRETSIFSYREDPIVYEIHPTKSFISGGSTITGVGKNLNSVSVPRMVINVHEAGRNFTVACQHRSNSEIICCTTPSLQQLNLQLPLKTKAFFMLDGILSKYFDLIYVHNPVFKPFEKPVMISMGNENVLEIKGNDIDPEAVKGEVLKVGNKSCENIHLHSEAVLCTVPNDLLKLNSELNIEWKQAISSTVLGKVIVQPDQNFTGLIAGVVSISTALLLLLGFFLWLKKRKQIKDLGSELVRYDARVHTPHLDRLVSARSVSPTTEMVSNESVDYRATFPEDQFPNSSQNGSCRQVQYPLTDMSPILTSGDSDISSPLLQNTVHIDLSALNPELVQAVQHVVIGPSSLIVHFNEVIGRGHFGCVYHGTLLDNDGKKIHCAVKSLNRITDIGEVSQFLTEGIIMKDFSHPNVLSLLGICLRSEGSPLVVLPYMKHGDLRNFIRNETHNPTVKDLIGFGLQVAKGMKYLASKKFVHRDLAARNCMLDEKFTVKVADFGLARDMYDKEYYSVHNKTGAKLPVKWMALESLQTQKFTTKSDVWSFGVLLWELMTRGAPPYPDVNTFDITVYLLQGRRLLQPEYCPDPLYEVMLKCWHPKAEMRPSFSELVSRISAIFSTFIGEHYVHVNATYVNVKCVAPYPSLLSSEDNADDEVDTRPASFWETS
Sequence of Vascular endothelial growth factor receptor 2 (Homo sapiens) (P35968 whole entry): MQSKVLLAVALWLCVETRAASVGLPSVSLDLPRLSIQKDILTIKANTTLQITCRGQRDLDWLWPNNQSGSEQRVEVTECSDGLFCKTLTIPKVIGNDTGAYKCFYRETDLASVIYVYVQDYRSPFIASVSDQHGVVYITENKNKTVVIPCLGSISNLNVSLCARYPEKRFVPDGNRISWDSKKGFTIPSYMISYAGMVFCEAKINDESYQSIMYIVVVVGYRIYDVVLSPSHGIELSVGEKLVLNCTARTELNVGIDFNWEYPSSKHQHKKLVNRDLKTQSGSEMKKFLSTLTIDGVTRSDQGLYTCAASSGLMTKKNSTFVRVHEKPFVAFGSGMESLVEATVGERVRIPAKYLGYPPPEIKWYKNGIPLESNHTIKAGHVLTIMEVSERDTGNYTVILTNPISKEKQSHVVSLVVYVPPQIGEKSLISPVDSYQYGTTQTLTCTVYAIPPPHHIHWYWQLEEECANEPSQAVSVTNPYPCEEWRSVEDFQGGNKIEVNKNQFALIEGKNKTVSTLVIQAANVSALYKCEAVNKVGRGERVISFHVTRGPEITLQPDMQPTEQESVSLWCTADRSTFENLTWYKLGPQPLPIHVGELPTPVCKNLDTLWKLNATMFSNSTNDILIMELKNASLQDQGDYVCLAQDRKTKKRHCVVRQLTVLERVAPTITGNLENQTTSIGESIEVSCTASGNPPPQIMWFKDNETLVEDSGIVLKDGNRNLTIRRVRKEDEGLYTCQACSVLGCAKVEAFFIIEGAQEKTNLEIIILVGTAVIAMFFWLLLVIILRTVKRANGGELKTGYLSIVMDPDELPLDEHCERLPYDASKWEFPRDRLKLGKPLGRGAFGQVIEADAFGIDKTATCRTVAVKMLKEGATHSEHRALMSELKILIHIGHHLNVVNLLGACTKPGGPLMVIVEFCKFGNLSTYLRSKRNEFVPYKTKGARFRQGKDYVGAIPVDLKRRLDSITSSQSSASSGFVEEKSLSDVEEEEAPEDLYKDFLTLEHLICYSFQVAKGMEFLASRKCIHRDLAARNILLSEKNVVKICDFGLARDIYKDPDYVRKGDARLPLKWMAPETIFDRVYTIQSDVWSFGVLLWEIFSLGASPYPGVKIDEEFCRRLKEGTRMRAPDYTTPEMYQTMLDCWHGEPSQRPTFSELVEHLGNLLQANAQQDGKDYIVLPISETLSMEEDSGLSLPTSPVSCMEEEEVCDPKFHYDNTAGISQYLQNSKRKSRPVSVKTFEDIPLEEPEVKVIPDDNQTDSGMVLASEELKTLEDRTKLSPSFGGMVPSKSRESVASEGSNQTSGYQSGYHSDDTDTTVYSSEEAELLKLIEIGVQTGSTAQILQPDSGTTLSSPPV

Row | Compound | IC50 [1] | IC50 [2] | IC50 [3] | IC50 [4] | other results
1 | O=C1NC2(Nc3c(Br)cc(Br)cc31)C(=O)N(Cc1ccc(F)cc1)c1ccccc12 (centres undefined) | 45.4 µM | > 100 µM | > 100 µM | 34.6 µM | 
2 | CC(C)(C)c1ccc(CN2C(=O)C3(NC(=O)c4cc(Br)cc(Br)c4N3)c3ccccc32)cc1 (centres undefined) | 45.5 µM | > 100 µM | > 100 µM | 19.6 µM | 
3 | CCCCCN1C(=O)C2(NC(=O)c3cc(Br)cc(Br)c3N2)c2ccccc21 (centres undefined) | 47.1 µM | > 100 µM | 51.9 µM | 24.7 µM | 
4 | O=C1NC2(Nc3c(Br)cc(Br)cc31)C(=O)N(Cc1ccc(Cl)c(Cl)c1)c1ccccc12 (centres undefined) | > 100 µM | > 100 µM | 24.3 µM | 19.8 µM | 
5 | CCCCCN1C(=O)C2(NC(=O)c3ccccc3N2)c2ccccc21 (centres undefined) | > 100 µM | > 100 µM | > 100 µM | > 100 µM | 
6 | CCN1C(=O)C2(NC(=O)c3ccccc3N2)c2ccccc21 (centres undefined) | > 100 µM | 50.4 µM | 28.5 µM | > 100 µM | 

Now those with a lower IC50 [1], led by results:

Row | IC50 [1] | IC50 [2] | IC50 [3] | IC50 [4] | Compound | other results
7 | 39.7 µM | 19.9 µM | 71.9 µM | 38.7 µM | O=C1NC2(Nc3ccccc31)C(=O)N(Cc1ccc(Br)cc1)c1ccccc12 (centres undefined) | 
8 | 26.9 µM | 13.8 µM | 12.5 µM | 10.4 µM | O=C1NC2(Nc3c(Br)cc(Br)cc31)C(=O)N(Cc1ccc(Cl)cc1)c1ccccc12 (centres undefined) | Activity [5]: 57.29%; inhibition [6]: 12%; inhibition [7]: -4%; inhibition [8]: 12%; inhibition [9]: 1%; inhibition [10]: 5%; inhibition [11]: -1%; inhibition [12]: 5%; inhibition [13]: 19%; inhibition [14]: 2%; Activity [15]: 1.04%; Activity [16]: 50.3%; inhibition [17]: -6%; Activity [18]: 27.23%; Activity [19]: 23.78%; inhibition [20]: -6%; inhibition [21]: 18%; Activity [22]: 1.41%; Activity [23]: 17.89%; Activity [24]: 21.06%
9 | 26.2 µM |  | 29.2 µM | 20.3 µM | Cc1ccc(CN2C(=O)C3(NC(=O)c4ccccc4N3)c3ccccc32)cc1 (centres undefined) | 
10 | 16.2 µM | 1.9 µM | 3.7 µM | 0.0592 µM | COc1cc2nccc(Oc3ccc(NC(=O)C4(C(=O)Nc5ccc(F)cc5)CC4)cc3)c2cc1OC [CABOZANTINIB] | 

— ChEMBL document CHEMBL5325463, “Novel spiroindoline quinazolinedione derivatives as anticancer agents and potential FLT3 kinase inhibitors” (Bioorg Med Chem, 2023)
